From patent US11505573B2, “Peptide macrocycles against Acinetobacter baumannii” (Hoffmann-La Roche Inc., priority 2018, dated 2022)

Test system: A. baumannii ATCC 17978
Test: Antimicrobial susceptibility testing: 50% growth inhibitory concentration (IC50) determination in Iso-Sensitest broth
Type: cell-based
Conditions: Acinetobacter baumannii; A. baumannii strain ATCC17978; Iso-Sensitest medium; OD 600 nm over 16 h; 35±2° C.; read-out: IC50 ATCC17978 (50% growth inhibition concentration)
Experimental: Antimicrobial Susceptibility Testing: 50% Growth Inhibitory Concentration (IC50) Determination The in vitro antimicrobial activity of the compounds was alternatively determined according to the following procedure: The assay used a 10-points Iso-Sensitest broth medium to measure quantitatively the in vitro activity of the compounds against A. baumannii ATCC 17978. Stock compounds in DMSO were serially twofold diluted (e.g. range from 10 to 0.02 μM final concentration) in 384 wells microtiter plates and inoculated with 49 μl the bacterial suspension in Iso-Sensitest medium to have a final cell concentration of ˜5×10^(5) CFU/ml in a final volume/well of […] Microtiter plates were incubated at 35±2° C. Bacterial cell growth was determined by the measurement of optical density at λ=600 nm each 20 minutes over a time course of 16 h. Growth inhibition was calculated during the logarithmic growth of the bacterial cells by determination of the concentration inhibiting 50% (IC50) and 90% (IC90) of the growth. Table 1 provides the 50% growth inhibitory concentrations (IC50) in micromoles per liter of the compounds of present invention obtained against the A. baumannnii strain ATCC17978.

Row | IC50 | SMILES
1 | 40 nM | COc1ccc(-c2ccc(-c3nnn[nH]3)cc2)c2c1Sc1ncccc1CN[C@@H](CCCN)C(=O)N[C@@H](CCCCN)C(=O)N(C)[C@@H](Cc1c[nH]c3ccccc13)C(=O)NC2 [Example 15.01, (11S,14S,17S)-14-(4-Aminobutyl)-1-(3-aminopropyl)-17-(1H-indol-3-ylmethyl)-25-methoxy-16-methyl-22-[4-(1H-tetrazol-5-yl)phenyl]-2-thia-4,10,13,16,19-pentazatricyclo[19.4.0.03,8]pentacosa-1(25), 3(8),4,6,21,23-hexaene-12,15,18-trione]
2 | 310 nM | CC(=O)NS(=O)(=O)c1ccc(-c2ccc(Cl)c3c2CNC(=O)[C@H](Cc2c[nH]c4ccccc24)N(C)C(=O)[C@H](CCCCN)NC(=O)[C@H](CCCO)NCc2cccnc2S3)cc1 [Example 16.00, N-[4-[(11S,14S,7S)-14-(4-aminobutyl)-25-chloro-11-(3-hydroxypropyl)-17-(1H-indol-3-ylmethyl)-16-methyl-12,15,18-trioxo-2-thia-4,10,13,16,19-pentazatricyclo[19.4.0.03,8]pentacosa-1(21),3,5,7,22,24-hexaen-22-yl]phenyl]sulfonylacetamide]
3 | 1840 nM | CN1C(=O)[C@H](CCCCN)NC(=O)[C@H](CCCO)NCc2cccnc2Sc2c(Cl)ccc(-c3cnc(O)nc3)c2CNC(=O)[C@@H]1Cc1c[nH]c2ccccc12 [Example 16.01, (11S,14S,17S)-14-(4-Aminobutyl)-25-chloro-11-(3-hydroxypropyl)-22-(2-hydroxypyrimidin-5-yl)-17-(1H-indol-3-ylmethyl)-16-methyl-2-thia-4,10,13,16,19-pentazatricyclo[19.4.0.03,8]pentacosa-1(21),3,5,7,22,24-hexaene-12,15,18-trione]
4 | 5220 nM | CC(=O)NS(=O)(=O)c1ccc(-c2ccc(Cl)c3c2CNC(=O)[C@H](Cc2c[nH]c4ccccc24)N(C)C(=O)[C@H](CCCCNCC(F)F)NC(=O)[C@H](CCCO)NCc2cccnc2S3)cc1 [Example 17.00, N-[4-[(11S,14S,7S)-25-Chloro-14-[4-(2,2-difluoroethylamino)butyl]-11-(3-hydroxypropyl)-17-(1H-indol-3-ylmethyl)-16-methyl-12,15,18-trioxo-2-thia-4,10,13,16,19-pentazatricyclo[19.4.0.03,8]pentacosa-1(21),3,5,7,22,24-hexaen-22-yl]phenyl]sulfonylacetamide]
5 | 630 nM | CNCCCC[C@@H]1NC(=O)[C@H](CCCO)NCc2cccnc2Sc2c(Cl)ccc(-c3ccc(S(=O)(=O)NC(C)=O)cc3)c2CNC(=O)[C@H](Cc2c[nH]c3ccccc23)N(C)C1=O [Example 18.00, N-[4-[(11S,14S,17S)-25-Chloro-11-(3-hydroxypropyl)-17-(1H-indol-3-ylmethyl)-16-methyl-14-[4-(methylamino)butyl]-12,15,18-trioxo-2-thia-4,10,13,16,19-pentazatricyclo[19.4.0.03,8]pentacosa-1(21),3,5,7,22,24-hexaen-22-yl]phenyl]sulfonylacetamide]
6 | 300 nM | CN1C(=O)[C@H](CCCCNCC(F)F)NC(=O)[C@H](CCCN)NCc2cccnc2Sc2c(Cl)ccc(-c3cnc(O)nc3)c2CNC(=O)[C@@H]1Cc1c[nH]c2ccccc12 [Example 19.00, (11S,14S,17S)-11-(3-Aminopropyl)-25-chloro-14-[4-(2,2-difluoroethylamino)butyl]-22-(2-hydroxypyrimidin-5-yl)-17-(1H-indol-3-ylmethyl)-16-methyl-2-thia-4,10,13,16,19-pentazatricyclo[19.4.0.03,8]pentacosa-1(21),3,5,7,22,24-hexaene-12,15,18-trione]
7 | 520 nM | CC(=O)NS(=O)(=O)c1ccc(-c2ccc(Cl)c3c2CNC(=O)[C@H](Cc2c[nH]c4ccccc24)N(C)C(=O)[C@H](CCCCN)NC(=O)[C@H](CCCNCCC(=O)O)NCc2cccnc2S3)cc1 [Example 20.00, 3-[3-[(11S,14S,17S)-22-[4-(Acetylsulfamoyl)phenyl]-14-(4-aminobutyl)-25-chloro-17-(H-indol-3-ylmethyl)-16-methyl-12,15,18-trioxo-2-thia-4,10,13,16,19-pentazatricyclo[19.4.0.03,8]pentacosa-1(21),3,5,7,22,24-hexaen-11-yl]propylamino]propanoic acid]
8 | 10000 nM | CN1C(=O)[C@H](CCCCN)NC(=O)[C@H](CCCN)NCc2cccnc2Sc2c(Cl)cc(-c3nnn[nH]3)cc2CNC(=O)[C@@H]1Cc1c[nH]c2ccccc12 [Example 21.00, (11S,14S,17S)-14-(4-Aminobutyl)-11-(3-aminopropyl)-25-chloro-17-(1H-indol-3-ylmethyl)-16-methyl-23-(1H-tetrazol-5-yl)-2-thia-4,10,13,16,19-pentazatricyclo[19.4.0.03,8]pentacosa-1(21),3,5,7,22,24-hexaene-12,15,18-trione]
9 | 180 nM | CN1C(=O)[C@H](CCCCN)NC(=O)[C@H](CCCN)NCc2cccnc2Sc2c(Cl)cc(-c3cn[nH]n3)cc2CNC(=O)[C@@H]1Cc1c[nH]c2ccccc12 [Example 22.00, (11S,14S,17S)-14-(4-Aminobutyl)-1-(3-aminopropyl)-25-chloro-17-(1H-indol-3-ylmethyl)-16-methyl-23-(1H-triazol-5-yl)-2-thia-4,10,13,16,19-pentazatricyclo[19.4.0.03,8]pentacosa-1(21),3,5,7,22,24-hexaene-12,15,18-trione]
